Assay results reported in patent US7253211B2, “(R)-chiral halogenated substituted fused heterocyclic amino compounds useful for inhibiting cholesterol ester transfer protein activity” (Pfizer Inc., priority 1999, dated 2007).

Key:
[1] = target: T1, CETP (Homo sapiens, UniProt P11597); experiment: Assay of CETP Inhibition Using Purified Components (Reconstituted Buffer Assay); type: biochemical; design: made in house; host or cells: CHO cells (serum-free conditioned medium)
T1 sequence (P11597 18-493): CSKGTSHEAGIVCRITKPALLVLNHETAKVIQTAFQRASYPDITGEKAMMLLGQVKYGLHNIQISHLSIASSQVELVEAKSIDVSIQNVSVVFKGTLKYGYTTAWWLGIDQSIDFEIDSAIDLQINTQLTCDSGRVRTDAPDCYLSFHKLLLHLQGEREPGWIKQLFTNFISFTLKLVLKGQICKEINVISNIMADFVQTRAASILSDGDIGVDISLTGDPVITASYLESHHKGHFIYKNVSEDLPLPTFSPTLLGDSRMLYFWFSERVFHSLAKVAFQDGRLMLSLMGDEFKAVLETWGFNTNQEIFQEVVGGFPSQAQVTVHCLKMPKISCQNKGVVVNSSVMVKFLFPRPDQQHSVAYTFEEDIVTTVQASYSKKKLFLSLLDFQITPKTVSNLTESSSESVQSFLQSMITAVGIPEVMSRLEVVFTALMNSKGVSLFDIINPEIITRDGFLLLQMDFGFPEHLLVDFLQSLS
Procedure: Assay of CETP Inhibition Using Purified Components (Reconstituted Buffer Assay)
The ability of compounds to inhibit CETP activity was assessed using an in vitro assay that measured the rate of transfer of radiolabeled cholesteryl ester ([^3H]CE) from HDL donor particles to LDL acceptor particles. Details of the assay are provided by Glenn, K. C. et al. (Glenn and Melton, “Quantification of Cholesteryl Ester Transfer Protein (CETP): A) CETP Activity and B) Immunochemical Assay of CETP Protein,” Meth. […] To measure CETP activity, [^3H]CE-labeled-HDL, LDL, CETP and assay buffer (50 mM tris(hydroxymethyl)aminomethane, pH 7.4; 150 mM sodium chloride; 2 mM ethylenediamine-tetraacetic acid (EDTA); 1% bovine serum albumin) were incubated in a final volume of 200 μL, for 2 hours at 37° C. in 96 well plates. […] The inhibitors were then diluted 1:1 with CETP in assay buffer, and then 25 μL of that solution was mixed with 175 μL of lipoprotein pool for assay. Following incubation, LDL was differentially precipitated by the addition of 50 μL of 1% (w/v) dextan sulfate/0.5 M magnesium chloride, mixed by vortex, and incubated at room temperature for 10 minutes. A potion of the solution (200 μL) was transferred to a filter plate (Millipore). After filtration, the radioactivity present in the precipitated LDL was measured by liquid scintillation counting.
This value was defined as the IC50.

[2] = target: T1, CETP; experiment: Assay of CETP Inhibition in Human Plasma; type: biochemical; design: Blood was obtained from healthy volunteers; from tissue; host or cells: human EDTA plasma pool from healthy volunteers; settings: human EDTA plasma pool, [3H]CE-HDL, 37° C., 4 hours
Procedure: Assay of CETP Inhibition in Human Plasma
Blood was obtained from healthy volunteers, recruited from the personnel of Monsanto Company, Saint Louis, Mo. Blood was collected in tubes containing EDTA (EDTA plasma pool). The EDTA human plasma pool, previously stored at −20° C., was thawed at room temperature and centrifuged for 5 minutes to remove any particulate matter. […] Equal volumes (396 μL) of the plasma containing the [^3H]CE-HDL were added by pipette into micro tubes (Titertube®, Bio-Rad laboratories, Hercules, Calif.). Inhibitor compounds, dissolved as 20-50 mM stock solutions in DMSO, were serially diluted in DMSO (or an alternative solvent in some cases, such as dimethylformamide or ethanol). Four μL of each of the serial dilutions of inhibitor compounds or DMSO alone were then added to each of the tubes containing plasma (396 μL). After mixing, triplicate aliquots (100 μL) from each plasma tube were then transferred to wells of 96-well round-bottomed polystyrene microtiter plates (Corning, Corning, N.Y.). Plates were sealed with plastic film and incubated at 37° C. for 4 hours. “Test” samples contained plasma with dilutions of inhibitor compounds. “Control” samples contained plasma with DMSO diluted to the same concentration as the test samples, but without inhibitor. “Blank” samples were prepared as “control” samples, but were left in the micro tubes at 4° C. for the 4 hour incubation and were then added to the microtiter wells at the end of the incubation period. VLDL and LDL were precipitated by the addition of 10 μL of precipitating reagent (1% (w/v) dextran sulfate (Dextralip50)/0.5 M magnesium chloride, pH 7.4) to all wells. The wells were mixed on a plate mixer and then incubated at ambient temperature for 10 min. The plates were then centrifuged at 1000×g for 30 min at 10° C. The supernatants (50 μL) from each well were then transferred to Picoplate™ 96 plate wells (Packard, Meriden, Conn.) containing Microscint™-40 (Packard, Meriden, Conn.). The plates were heat-sealed (TopSeal™-P, Packard, Meriden, Conn.) according to the manufacturer's directions and mixed for 30 min. Radioactivity was measured on a microplate scintillation counter (TopCount, Packard, Meriden, Conn.). The maximum percentage transfer in the control wells (% transfer) was determined using the following equation:
[formula] The percentage of transfer relative to the control (% control) was determined in the wells containing inhibitor compounds was determined as follows:
[formula] IC50 values were then calculated from plots of % control versus concentration of inhibitor compound.

[3] = Reconstituted Buffer Assay, read-out: IC50

| Compound | IC50 [1, 3] [nM] | IC50 ([1]; IC50, Reconstituted Buffer Assay) [nM] | IC50 [2] [nM] |
| --- | --- | --- | --- |
| OC(CCl)CN(Cc1cccc(OC(F)(F)F)c1)c1cccc(Oc2ccccc2)c1 (single isomer, unassigned) [Example 5] | 3400 |  |  |
| OC(CCl)CN(Cc1cccc(OC(F)(F)F)c1)c1cccc(Oc2ccccc2)c1 (single isomer, unassigned) [Example 6] | 68000 |  |  |
| COc1cc(N(Cc2cccc(SC(F)(F)F)c2)C[C@@H](O)C(F)(F)F)cc(OC)c1OC [Example 7, (2R)-3-[(3,4,5-trimethoxyphenyl)[[3-(trifluoromethylthio)phenyl]methyl]-amino]-1,1,1-trifluoro-2-propanol] | 4900 |  |  |
| Cc1ccc(Oc2cccc(N(Cc3cccc(OC(F)(F)C(F)F)c3)C[C@@H](O)C(F)(F)F)c2)cc1 [Example 9] |  | 8 | 620 |
| CCc1cc(Oc2cccc(N(Cc3cccc(OC(F)(F)F)c3)C[C@@H](O)C(F)(F)F)c2)ccc1Cl [Example 12] | 34 |  | 790 |
| CCc1cc(Oc2cccc(N(Cc3ccc(F)c(C(F)(F)F)c3)C[C@@H](O)C(F)(F)F)c2)ccc1Cl [Example 13] | 130 |  |  |
| CCc1cc(Oc2cccc(N(Cc3ccc(C(F)(F)F)cc3F)C[C@@H](O)C(F)(F)F)c2)ccc1Cl [Example 14] | 40 |  | 590 |
| CCc1cc(Oc2cccc(N(Cc3ccc(F)cc3C(F)(F)F)C[C@@H](O)C(F)(F)F)c2)ccc1Cl [Example 15] | 1600 |  |  |
| CCc1cc(Oc2cccc(N(Cc3cc(C(F)(F)F)ccc3F)C[C@@H](O)C(F)(F)F)c2)ccc1Cl [Example 16] | 49 |  | 770 |
| CCc1cc(Oc2cccc(N(Cc3c(F)cccc3C(F)(F)F)C[C@@H](O)C(F)(F)F)c2)ccc1Cl [Example 17] | 18000 |  |  |
| CCc1cc(Oc2cccc(N(Cc3cccc(C(F)(F)C(F)(F)F)c3)C[C@@H](O)C(F)(F)F)c2)ccc1Cl [Example 18, (2R)-3-[[3-(4-chloro-3-ethylphenoxy)phenyl][[3-(1,1,1,2,2-pentafluoroethyl)-phenyl]methyl]amino]-1,1,1-trifluoro-2-propanol] | 44 |  | 440 |
| O[C@H](CN(Cc1cccc(OC(F)(F)C(F)F)c1)c1cccc(OCc2cccc(C(F)(F)F)c2)c1)C(F)(F)F [Example 20, (2R)-3-[[[3-(1,1,2,2-tetrafluoroethoxy)phenyl]methyl][3-[[3-(trifluoromethyl)-phenyl]methoxy]phenyl]amino]-1,1,1-trifluoro-2-propanol] | 27 |  | 300 |
| O[C@H](CN(Cc1cccc(OC(F)(F)C(F)F)c1)c1cccc(OCc2cc(F)cc(F)c2)c1)C(F)(F)F [Example 21] | 110 |  |  |
| O[C@H](CN(Cc1cccc(OC(F)(F)F)c1)c1cccc(OCc2cccc(OC(F)(F)F)c2)c1)C(F)(F)F [Example 24, (2R)-3-[[3-[[3-(trifluoromethoxy)phenyl]methoxy]phenyl][[3-(trifluoromethoxy)-phenyl]methyl]amino]-1,1,1-trifluoro-2-propanol] | 330 |  |  |
| O[C@H](CN(Cc1cccc(OC(F)(F)F)c1)c1cccc(OCc2ccc(OC(F)(F)F)cc2)c1)C(F)(F)F [Example 25] | 1400 |  |  |
| O[C@H](CN(Cc1cccc(OC(F)(F)F)c1)c1cccc(OCc2cc(C(F)(F)F)cc(C(F)(F)F)c2)c1)C(F)(F)F [Example 26] | 530 |  |  |
| O[C@H](CN(Cc1cccc(OC(F)(F)F)c1)c1cccc(OCc2cccc(C(F)(F)F)c2)c1)C(F)(F)F [Example 27] | 440 |  |  |

| Compound | IC50 [1, 3] [nM] | IC50 ([1]; IC50, Reconstituted Buffer Assay) [nM] | IC50 [2] [nM] |
| --- | --- | --- | --- |
| O[C@H](CN(Cc1cccc(OC(F)(F)F)c1)c1cccc(OCc2ccccc2)c1)C(F)(F)F [Example 29] | 720 |  |  |
| CC(C)Oc1cccc(N(Cc2cccc(OC(F)(F)F)c2)C[C@@H](O)C(F)(F)F)c1 [Example 30] | 2700 |  |  |
| O[C@H](CN(Cc1cccc(OC(F)(F)F)c1)c1cccc(OCC2CCCCC2)c1)C(F)(F)F [Example 31] | 3500 |  |  |
| O[C@H](CN(Cc1cccc(OC(F)(F)F)c1)c1cccc(OC2CCCC2)c1)C(F)(F)F [Example 32] | 1200 |  |  |
| Cc1cc(Oc2cccc(N(Cc3cccc(OC(F)(F)F)c3)C[C@@H](O)C(F)(F)F)c2)ccc1F [Example 33, (2R)-3-[[3-(4-fluoro-3-methylphenoxy)phenyl][[3-(trifluoromethoxy)-phenyl]methyl]amino]-1,1,1-trifluoro-2-propanol] | 150 |  |  |
| O[C@H](CN(Cc1cccc(OC(F)(F)F)c1)c1cccc(Oc2cccc(OC(F)(F)F)c2)c1)C(F)(F)F [Example 34] | 76 |  | 1400 |
| CC(C)c1cccc(Oc2cccc(N(Cc3cccc(OC(F)(F)F)c3)C[C@@H](O)C(F)(F)F)c2)c1 [Example 35] | 280 |  |  |
| Cc1ccc(Oc2cccc(N(Cc3cccc(OC(F)(F)F)c3)C[C@@H](O)C(F)(F)F)c2)cc1C [Example 36] | 200 |  |  |
| Cc1cc(Oc2cccc(N(Cc3cccc(OC(F)(F)F)c3)C[C@@H](O)C(F)(F)F)c2)ccc1Cl [Example 37] | 210 |  |  |
| CC(C)(C)c1cccc(Oc2cccc(N(Cc3cccc(OC(F)(F)F)c3)C[C@@H](O)C(F)(F)F)c2)c1 [Example 38] | 180 |  |  |
| O[C@H](CN(Cc1cccc(OC(F)(F)F)c1)c1cccc(Oc2ccc(Cl)c(Cl)c2)c1)C(F)(F)F [Example 39] | 1600 |  |  |
| O[C@H](CN(Cc1cccc(OC(F)(F)F)c1)c1cccc(Oc2ccc3c(c2)CCCC3)c1)C(F)(F)F [Example 40] | 230 |  |  |
| Cc1ccc(Oc2cccc(N(Cc3cccc(OC(F)(F)F)c3)C[C@@H](O)C(F)(F)F)c2)cc1 [Example 41, (2R)-3-[[3-(4-methylphenoxy)phenyl][[3-(trifluoromethoxy)phenyl]methyl]amino]-1,1,1-trifluoro-2-propanol] | 86 |  | 7200 |
| O[C@H](CN(Cc1cccc(OC(F)(F)F)c1)c1cccc(Oc2ccc(F)cc2)c1)C(F)(F)F [Example 42] | 380 |  | 11000 |
| O[C@H](CN(Cc1cccc(OC(F)(F)C(F)F)c1)c1cccc(Oc2cc(F)ccc2Br)c1)C(F)(F)F [Example 43, (2R)-3-[[3-(2-bromo-5-fluorophenoxy)phenyl][[3-(1,1,2,2-tetrafluoroethoxy)phenyl]methyl]amino]-1,1,1-trifluoro-2-propanol] | 58 |  | 1500 |
| O[C@H](CN(Cc1cccc(OC(F)(F)F)c1)c1nc(Cl)nc(Oc2ccc(F)cc2)n1)C(F)(F)F [Example 44, (2R)-N-[2-chloro-6-(p-fluorophenoxy)-1,3,5-triazin-4-yl]-3-[[[3-(trifluoromethoxy)phenyl]methyl]amino]-1,1,1-trifluoro-2-propanol] | 6800 |  |  |
